ChEMBL document CHEMBL6083206, “SLL-1A-16 suppresses proliferation and induces autophagy in non-small-cell lung cancer cells via the AKT/mTOR signaling pathway” (RSC Med Chem, 2024)

Assay: Toxicity in Balb/c nude mouse xenografted with human A549 cells assessed as reduction in body weight at 25 mg/kg, ip administered for 14 days
Assay type: organism-based
Conditions: in vivo, 336 h, time 14 day

## Cl.Nc1ccn([C@@H]2O[C@H](CO)[C@@H](O)C2(F)F)c(=O)n1 [GEMCITABINE HYDROCHLORIDE]
  Activity: Toxic
